Columns and labels:
[1] = test system: leukotriene component of antigen-induced bronchoconstriction; test: Antigen-Induced Bronchoconstriction in Guinea Pigs; assay type: in vivo, guinea pig (male Hartley); details: aerosol, vs placebo treated controls
Text: Antigen-Induced Bronchoconstriction in Guinea Pigs
This model measures the ability of a compound to block the leukotriene component of antigen-induced bronchoconstriction. Male Hartley guinea pigs are actively sensitized to ovalbumin, pretreated with mepyramine and indomethacin (to block the histamine and cyclooxygenase metabolite components respectively), and test compound (by aerosol administration). The guinea pigs are challenged with antigen (inhaled ovalbumin). Pulmonary function is measured by oscillatory mechanics as described by W. W. Wolyniec et al. (Agents and Actions 1991, 34, 1/2, 73). Results are expressed as percent inhibition of bronchoconstriction (resistance) in the test compound treated guinea pigs compared to placebo treated controls.
*Refers to amount of test compound inhaled by gunea pig. Compounds
administered by aerosolized freon/ethanol solution from metered dose

[2] = test system: LTB4 biosynthesis in human polymorphonuclear leukocytes (PMNs); test: Inhibition of LTB4 biosynthesis in human polymorphonuclear leukocytes (PMNs); assay type: cell-based; details: Homo sapiens, Leukocyte, values with <: see footnote d, Table 1
[3] = Table 14, Miscellaneous Compounds

c1ccc(C(CC2CCCCC2)Nc2nc3ccccc3o2)cc1 (centres unmarked) [Compound 51, 2-(2-Cyclohexyl-1-phenyl]ethylaminobenzoxazole]
% Inhibition of bronchoconstriction (resistance) ([1]; 274 micrograms inhaled): 86% | IC50 ([2]; Table 3, Phenyl): 6.9 nM

COc1ccc(C(CC2CCCCC2)Nc2nc3ccccc3o2)cc1 (centres unmarked) [Compound 56]
% Inhibition of bronchoconstriction (resistance) ([1]; 95 micrograms inhaled): 43% | IC50 ([2]; Table 3, Phenyl): 550 nM

Cc1ccc2oc(NC(CC3CCCCC3)c3ccccn3)nc2c1 (centres unmarked) [Compound 81]
% Inhibition of bronchoconstriction (resistance) ([1]; 2.8 micrograms inhaled): 61% | % Inhibition of bronchoconstriction (resistance) ([1]; 28 micrograms inhaled): 64% | % Inhibition of bronchoconstriction (resistance) ([1]; 308 micrograms inhaled): 64% | IC50 ([2]; Table 4, Pyridyl): 3.1 nM

Cc1ccc2oc(NC(CC3CCCCC3)c3ccccn3)nc2n1 (centres unmarked) [Compound 165]
% Inhibition of bronchoconstriction (resistance) ([1]; 5.6 micrograms inhaled): 0% | % Inhibition of bronchoconstriction (resistance) ([1]; 28 micrograms inhaled): 64% | % Inhibition of bronchoconstriction (resistance) ([1]; 274 micrograms inhaled): 84% | IC50 ([2]; Table 10, Oxazolopyridines): 26 nM

Fc1ccc(CC(Nc2nc3ncc(Cl)cc3s2)c2ccccn2)cc1 (centres unmarked) [Compound 189]
IC50 ([2]; Table 11, Thiazolopyridines): 28 nM

Cc1cnc2nc(NC(CC3CCCCC3)c3ccccc3)sc2c1 (centres unmarked) [Compound 191]
IC50 ([2]; Table 11, Thiazolopyridines): < 1000 nM

Cc1cnc2nc(NC(Cc3ccc(F)cc3)c3ccccn3)sc2c1 (centres unmarked) [Compound 192]
IC50 ([2]; Table 11, Thiazolopyridines): < 300 nM

COC(=O)[C@H](Cc1cn(C)cn1)Nc1nc2cc(C(C)C)ccc2o1 [Compound 201]
IC50 [2, 3]: < 1000 nM

CC(C)c1ccc2oc(NC(Cc3cccc(Cl)c3)c3nccn3C)nc2c1 (centres unmarked) [Compound 202]
IC50 [2, 3]: < 100 nM

— patent publication US5552421A, “Leukotriene biosynthesis inhibitors” (Boehringer Ingelheim Pharmaceuticals, Inc., priority 1995, dated 1996)
